How the values were obtained:
[1] = particle size distribution by laser diffraction (Mastersizer 3000); assay type: physicochemical; details: re-dispersed in 0.2% Tween 20 deionized water
Description: (§1) Briefly, 10 mg/mL (+)-TBZ or (±)-d6-TBZ recrystallized crystal was re-dispersed in 0.2% Tween 20 deionized water with a rigorous vortex. The microscopy was conducted using the optical microscope Leica DMi8, with 100-fold magnification. The PSD was measured using laser diffraction method, with Mastersizer 3000 (Malvern, UK). Before particle sizing, the 10 mg/mL (+)-TBZ crystal was re-dispersed in 0.2% Tween 20 deionized water and sonicated for ˜10 sec.
as §1, with “(+)-TBZ” for “(+)-TBZ or (±)-d6-TBZ”
Four grams of raw (+)-TBZ crystals were jet milled in a 20 mm milling chamber at room temperature (Micromacinazione, Switzerland). Briefly, the jet mill was connected to high pressure nitrogen for providing the pneumatic forces. The grinding pressure and feeding pressure are set on 2.5 bar and 5 bar, respectively. The feeding rate of raw (+)-TBZ crystal was 1.6 g/m in. The fine (+)-TBZ powder was collected by the cyclone and recovered in a vial. The yield was ˜80%. The PSD was characterized using laser diffraction method, with Mastersizer 3000 (Malvern, UK). Before particle sizing, the 10 mg/mL (+)-TBZ crystal was re-dispersed in 0.2% Tween 20 deionized water and sonicated for ˜10 sec. […]
Four grams of raw cholesterol crystals (Nippon fine chemical, Japan) was jet milled in a 20 mm milling chamber at room temperature (Micromacinazione, Switzerland). The jet mill was connected to high pressure nitrogen for providing the pneumatic forces. The grinding pressure and feeding pressure are set on 2.5 bar and 5 bar, respectively. The feeding rate of raw cholesterol crystal was 1.6 g/m in. The fine CSTR powder was collected by the cyclone and recovered in a vial. The yield was ˜80%. The PSD was characterized using laser diffraction method, with Mastersizer 3000 (Malvern, UK). Before particle sizing, the 10 mg/mL CSTR crystal was re-dispersed in 0.2% Tween 20 deionized water and sonicated for ˜10 sec.
The spray drying was conducted with Mini Spray Dryer B-290, (Buchi, Switzerland). First, 10 grams of raw cholesterol crystal was dissolved in 300 mL isopropanol (IPA) with 35-40° C. heating to obtain a clear solution. The spray drying was conducted at a flow rate of 12.5 ml/min and completed in 2 hours. The fine CSTR particles were collected by the cyclone and recovered in a vial. The yield was about 80%. […] Briefly, 10 mg/mL SPD CSTR was re-dispersed in 0.2% Tween 20 deionized water with a rigorous vortex. The microscopy was conducted using the optical microscope Leica DMi8, with 100-fold magnification. The PSD was characterized using laser diffraction method, with Mastersizer 3000 (Malvern, UK) and the results are shown in Table 12. Before particle sizing, the 10 mg/mL SPD CSTR was re-dispersed in 0.2% Tween 20 deionized water and sonicated for ˜10 sec. […]
4 grams of raw (+)-α-DHTBZ crystals (Wuxi Pharma, China) were jet milled in a 20 mm milling chamber at room temperature (Micromacinazione, Switzerland). Briefly, the jet mill was connected to high pressure nitrogen for providing pneumatic forces, with grinding pressure and feeding pressure set at 4 and 5 bars, respectively. The feeding rate of raw (+)-α-DHTBZ crystals was 1.6 g/m in. Fine milled (+)-α-DHTBZ crystals were collected by the cyclone and recovered in a vial. The yield was ˜80%. The PSD of jet-milled (+)-α-DHTBZ was characterized using laser diffraction method, with Mastersizer 3000 (Malvern, UK). Before particle sizing, the 10 mg jet milled (+)-α-DHTBZ was re-dispersed in 1 mL of 0.2% Tween-20 deionized water and sonicated for ˜10 sec.

solubility in heptane = assay type: physicochemical; details: room temperature
[2] = cited from earlier work
dopamine D2 = dopamine D2 (Homo sapiens, UniProt P14416); details: dopamine D2 receptor; read-out: off-target binding affinity to dopamine D2; cited from earlier work
[3] = biological target: serotonin 5-HT7 receptors (Homo sapiens, UniProt P34969); details: serotonin 5-HT7 receptor; read-out: off-target binding affinity to serotonin 5-HT7; cited from earlier work
[4] = listed as 3 g rex (+)-TBZ-1 iii

dopamine D2, sequence (P14416 whole entry): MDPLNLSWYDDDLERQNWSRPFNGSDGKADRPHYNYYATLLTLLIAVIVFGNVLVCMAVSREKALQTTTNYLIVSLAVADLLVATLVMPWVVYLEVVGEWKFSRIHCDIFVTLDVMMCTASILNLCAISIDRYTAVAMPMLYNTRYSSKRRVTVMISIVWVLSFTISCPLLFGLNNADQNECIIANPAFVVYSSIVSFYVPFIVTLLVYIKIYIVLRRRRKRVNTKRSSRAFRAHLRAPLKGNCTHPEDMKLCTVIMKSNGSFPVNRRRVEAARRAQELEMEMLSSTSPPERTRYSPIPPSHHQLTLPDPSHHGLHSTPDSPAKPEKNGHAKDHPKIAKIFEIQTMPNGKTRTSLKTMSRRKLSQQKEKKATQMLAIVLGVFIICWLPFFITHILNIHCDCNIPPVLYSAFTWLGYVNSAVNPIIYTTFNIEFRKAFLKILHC
serotonin 5-HT7 receptors, sequence (P34969 whole entry): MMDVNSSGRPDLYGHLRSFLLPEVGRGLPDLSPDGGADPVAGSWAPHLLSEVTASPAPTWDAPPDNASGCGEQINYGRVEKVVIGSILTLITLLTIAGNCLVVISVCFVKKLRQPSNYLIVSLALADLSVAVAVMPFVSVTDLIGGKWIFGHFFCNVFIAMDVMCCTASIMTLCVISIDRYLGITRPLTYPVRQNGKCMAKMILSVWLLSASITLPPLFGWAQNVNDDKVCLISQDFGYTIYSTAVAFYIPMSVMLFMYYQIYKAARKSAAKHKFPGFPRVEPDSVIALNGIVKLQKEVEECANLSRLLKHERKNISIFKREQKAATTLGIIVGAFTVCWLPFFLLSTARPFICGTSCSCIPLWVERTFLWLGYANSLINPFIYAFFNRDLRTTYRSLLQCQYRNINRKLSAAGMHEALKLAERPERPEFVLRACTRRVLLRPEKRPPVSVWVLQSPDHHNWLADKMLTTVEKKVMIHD

Compound: CC(C)CCC[C@@H](C)[C@H]1CC[C@H]2[C@@H]3CC=C4C[C@@H](O)CC[C@]4(C)[C@H]3CC[C@]12C [cholesterol]
- D50 (μm) [1]: 27.3 μm
- D10 (μm) ([1]; listed as Jet milled CSTR): 0.3 μm
- D50 (μm) ([1]; listed as Jet milled CSTR): 4.6 μm
- D90 (μm) ([1]; listed as Jet milled CSTR): 12 μm
- D10 (μm) ([1]; listed as Raw CSTR): 14.1 μm
- D50 (μm) ([1]; listed as Raw CSTR): 27.3 μm
- D90 (μm) ([1]; listed as Raw CSTR): 48 μm
- D10 (μm) ([1]; listed as Spray dried CSTR): 0.2 μm
- D50 (μm) ([1]; listed as Spray dried CSTR): 2.0 μm
- D90 (μm) ([1]; listed as Spray dried CSTR): 5.0 μm
- solubility in heptane (solubility in heptane): > 10 % by weight

Compound: COc1cc2c(cc1OC)C1CC(O)C(CC(C)C)CN1CC2 (single isomer, unassigned; (+)) [(+)-(α)-DHTBZ, [+]-α-dihydrotetrabenazine]
- D10 (μm) [1]: 5 μm
- D50 (μm) [1]: 13 μm
- D90 (μm) [1]: 40 μm

Compound: COc1cc2c(cc1OC)C1CC(=O)C(CC(C)C)CN1CC2 (racemic) [TBZ, 1,3,4,6,7,11b-hexahydro-9,10-dimethoxy-3-(2-methoxylrpopryl)-2H-benzo(a)quinoline-2-one, reference compound]
- oral bioavailability [2]: 17%
- D10 (μm) [1]: 4.2 μm
- D50 (μm) [1]: 9.2 μm
- D90 (μm) [1]: 20.1 μm

Compound: [−]-β-dihydrotetrabenazine [(−)-(β)-DHTBZ]
- Ki (dopamine D2): 53 nM
- Ki [3]: 5.9 nM

Compound: COc1cc2c(cc1OC)[C@H]1CC(=O)[C@H](CC(C)C)CN1CC2 [(+)-TBZ, (3R,11bR)-tetrabenazine]
- D10 (μm) ([1]; listed as 3 g rex (+)-TBZ-1 i): 17.3 μm
- D50 (μm) ([1]; listed as 3 g rex (+)-TBZ-1 i): 38.5 μm
- D90 (μm) ([1]; listed as 3 g rex (+)-TBZ-1 i): 75.0 μm
- D10 (μm) ([1]; listed as 3 g rex (+)-TBZ-1 ii): 22.0 μm
- D50 (μm) ([1]; listed as 3 g rex (+)-TBZ-1 ii): 45.9 μm
- D90 (μm) ([1]; listed as 3 g rex (+)-TBZ-1 ii): 85.7 μm
- D10 (μm) [1, 4]: 16.6 μm
- D50 (μm) [1, 4]: 33.7 μm
- D90 (μm) [1, 4]: 60.7 μm
- D10 (μm) ([1]; listed as 12 g rex (+)-TBZ i): 15.9 μm
- D50 (μm) ([1]; listed as 12 g rex (+)-TBZ i): 34.9 μm
- D90 (μm) ([1]; listed as 12 g rex (+)-TBZ i): 65.8 μm
- D10 (μm) ([1]; listed as 12 g rex (+)-TBZ ii): 17.7 μm
- D50 (μm) ([1]; listed as 12 g rex (+)-TBZ ii): 40.8 μm
- D90 (μm) ([1]; listed as 12 g rex (+)-TBZ ii): 80.4 μm
- D10 (μm) ([1]; listed as 12 g rex (+)-TBZ iii): 16.7 μm
- D50 (μm) ([1]; listed as 12 g rex (+)-TBZ iii): 38 μm
- D90 (μm) ([1]; listed as 12 g rex (+)-TBZ iii): 76 μm
- D10 (μm) ([1]; listed as Jet milled (+)-TBZ): 2.5 μm
- D50 (μm) ([1]; listed as Jet milled (+)-TBZ): 5.2 μm
- D90 (μm) ([1]; listed as Jet milled (+)-TBZ): 11.8 μm
- D10 (μm) ([1]; listed as Raw (+)-TBZ): 14.3 μm
- D50 (μm) ([1]; listed as Raw (+)-TBZ): 66.5 μm
- D90 (μm) ([1]; listed as Raw (+)-TBZ): 184 μm
- solubility in heptane (solubility in heptane): < 0.4 % by weight

Compound: (RR, SS)-1,3,4,6,7,11b-hexahydro-9, 10-di(methoxy-d3)-3-(2-methylpropyl) 2H-benzo[a]quinolizin-2-one [(±)-d6-TBZ, reference compound]
- D10 (μm) [1]: 12.3 μm
- D50 (μm) [1]: 25.6 μm
- D90 (μm) [1]: 45.4 μm

Compound: COc1cc2c(cc1OC)[C@H]1C[C@@H](OC(=O)[C@@H](N)C(C)C)[C@H](CC(C)C)CN1CC2 [VBZ, L-Valine, (2R,3R,11bR)-1,3,4,6,7,11b-hexahydro-9,10-dimethoxy-3-(2-methylpropyI)-2H-benzo[a]quinolizin-2-yl ester]
- oral bioavailability [2]: ~50%

Compound: COc1cc2c(cc1OC)[C@H]1C[C@@H](O)[C@H](CC(C)C)CN1CC2 [(−)-(α)-DHTBZ, [−]-α-dihydrotetrabenazine]
- Ki (dopamine D2): 180 nM
- Ki [3]: 71 nM

From patent publication US20240156723A1, “DEPOT COMPOSITIONS FOR VESICULAR MONOAMINE TRANSPORTER 2 (VMAT2) INHBITORS” (Foresee Pharmaceuticals Co., Ltd., priority 2022, published 2024)
